In patent US9901621B2, “Composition for treating hyperlipidemia comprising oxyntomodulin derivative” (HANMI PHARM. CO., LTD., priority 2012, dated 2018):
pEC50: −log10 of the molar value. Where a SMILES comes first, the peptide text is derived from it. [ ]: non-standard residue; d: D form. Aib = CC(C)(N)C(=O)O

Columns and labels:
[1] = biological target: T1, human GLP-1 receptor (Homo sapiens, UniProt P43220); test: cAMP response in CHO cells expressing GLP-1 receptor (CHO/GLP-1R); assay type: cell-based
T1 construct: Using a portion corresponding to the ORF (open reading frame) of cDNA; expressed in transfected cells; host or cells: CHO DG44
T1 sequence (P43220 24-463): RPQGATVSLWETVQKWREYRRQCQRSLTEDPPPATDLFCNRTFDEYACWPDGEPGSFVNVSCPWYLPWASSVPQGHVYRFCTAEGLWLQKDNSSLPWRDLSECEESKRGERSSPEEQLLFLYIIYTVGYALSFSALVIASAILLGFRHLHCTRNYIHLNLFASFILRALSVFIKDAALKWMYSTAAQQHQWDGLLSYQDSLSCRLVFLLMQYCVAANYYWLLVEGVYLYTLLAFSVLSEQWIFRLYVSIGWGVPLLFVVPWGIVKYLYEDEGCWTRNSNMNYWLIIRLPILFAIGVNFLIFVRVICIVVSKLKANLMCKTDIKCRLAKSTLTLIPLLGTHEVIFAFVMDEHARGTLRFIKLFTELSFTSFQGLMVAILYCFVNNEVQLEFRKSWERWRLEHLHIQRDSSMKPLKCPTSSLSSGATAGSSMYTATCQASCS
Protocol: The PCR product was cloned into the known animal cell expression vector x0GC/dhfr, thereby constructing the recombinant vector x0GC/GLP-1R.
(§1) The recombinant vector x0GC/GLP-1R was introduced into a CHO DG44 cell line, cultured in DMEM/F12 (10% FBS) medium, using lipofectamine (Invitrogene, USA), to obtain a transformant. The transformant was incubated in a selective medium containing 1 mg/mL G418 and 10 nM methotraxate, and monoclonal cell lines were selected therefrom.
(§2) The cultured cells were washed with KRB buffer, suspended in 40 ml of 1 mM IBMX-containing KRB buffer, and then allowed to stand at room temperature for 5 minutes. […] Then, 20 ml of cell lysis buffer was added to lyse the cells, and the concentration of cAMP in each of the cell lysates was measured using a cAMP assay kit (Molecular Device, USA).

[2] = biological target: T2, human glucagon receptor (Homo sapiens, UniProt P47871); test: cAMP response in CHO cells expressing glucagon receptor (CHO/GCGR); assay type: cell-based
T2 construct: Using a portion corresponding to the ORF (open reading frame) of cDNA; expressed in transfected cells; host or cells: CHO DG44
T2 sequence (P47871 26-477): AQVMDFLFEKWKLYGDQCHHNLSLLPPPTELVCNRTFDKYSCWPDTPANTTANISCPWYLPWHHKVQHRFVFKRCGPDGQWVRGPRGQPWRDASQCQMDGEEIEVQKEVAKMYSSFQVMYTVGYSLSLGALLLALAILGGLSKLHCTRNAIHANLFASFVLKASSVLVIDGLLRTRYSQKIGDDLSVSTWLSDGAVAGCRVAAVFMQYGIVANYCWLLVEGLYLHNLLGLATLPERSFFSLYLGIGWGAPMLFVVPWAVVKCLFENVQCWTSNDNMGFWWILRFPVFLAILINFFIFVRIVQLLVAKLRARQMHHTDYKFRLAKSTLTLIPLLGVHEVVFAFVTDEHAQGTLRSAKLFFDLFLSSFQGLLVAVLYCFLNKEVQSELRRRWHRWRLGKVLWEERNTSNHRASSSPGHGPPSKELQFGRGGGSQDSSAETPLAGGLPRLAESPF
Protocol: The PCR product was cloned into the known animal cell expression vector x0GC/dhfr, thereby constructing the recombinant vector x0GC/GCGR.
as §1, with “x0GC/GCGR” for “x0GC/GLP-1R”
as §2

[3] = test system: high-fat diet-induced hyperlipidemia hamsters; test: Blood lipid levels in high-fat diet hamsters, comparison with VICTOZA (Example 6); assay type: in vivo, Golden Syrian hamsters; details: vs 35.5 nmol/kg VICTOZA s.c., 3.25 nmol/kg SEQ ID NO: 25-Fc or 8.96 nmol/kg SEQ ID NO: 23-Fc s.c.
Protocol: The effect of reducing lipid levels was compared between the oxyntomodulin derivative conjugate and known VICTOZA®.
As described in Example 5, hamsters were divided into a normal hamster group and hamster groups fed with a high-fat diet. The normal hamster group was administered subcutaneously with 5 ml/kg of DPBS once or more a week. The hamster groups fed with high-fat diet were divided into a group administered subcutaneously with 5 ml/kg of DPBS once or more a week, a group administered subcutaneously with 35.5 nmol/kg of VICTOZA® once or more a week, a group administered subcutaneously with 3.25 nmol/kg of the SEQ ID NO: 25-Fc conjugate, and a group administered subcutaneously with 8.96 nmol/kg of the SEQ ID NO:23-Fc conjugate, and the blood lipid levels of the groups were analyzed.

[4] = test system: high-fat diet-induced hyperlipidemia hamsters; test: Reduction in lipid levels in hyperlipidemia model hamsters (Example 5); assay type: in vivo, Golden Syrian hamsters; details: vs high-fat diet group, s.c. once a week for 2 weeks, 3.25 nmol/kg SEQ ID NO: 25-Fc or 8.96 nmol/kg SEQ ID NO: 23-Fc
Excerpt: 8 week-old male hamsters (Golden Syrian hamsters, 120-130 g) were purchased from Vital River China. It is known that hamsters show blood lipid profiles similar to humans, unlike other rodents, and are sensitive to high-fat diets.
The animals were allowed access to a sterilized high-fat diet (Purina 5001 containing 11.5% maize oil, 11.5% coconut oil, 0.5% cholesterol, and 0.25% deoxycholate; Dyets, Bethlehem, Pa.) or a standard rodent diet (low fat, 2018; Harlan Teklad, Madison, Wis.). A normal diet group was allowed access to filtered and UV-sterilized tap water, and a high-fat diet group was allowed access to water containing 10% fructose. The animals were kept in a breeding chamber satisfying GLP standards under a 12-hr light/12-hr dark cycle (lighting: am 6 to pm 6), and all the experimental procedures were performed according to the standard guideline for animal experiments. Drug administration was started after 3 weeks of hyperlipidemia induction, and the animals were divided into four groups (n=6) as shown in Table 3 below.
(§3) Group 3 (hyperlipidemia-induced group+group administered with 3.25 nmol/kg of SEQ ID NO: 25-Fc conjugate) was fed with a high-fat diet to induce hyperlipidemia, and then administered with 3.25 nmol/kg of the SEQ ID NO: 25-Fc conjugate (prepared in Example 4) once a week at an injection dose of 5 ml/kg.
as §3, with “4” for “3”, “8.96” for “3.25”, “23-Fc” for “25-Fc”, “3)” for “4)”
Saline or the drug was administered into each group (n=6) for 2 weeks, and then the effects thereof on a reduction in lipid levels were analyzed.
Blood was collected from the hamsters which were administered or not administered with the long-acting oxyntomodulin derivative as described in Example 5-1, and the lipid levels of the blood were analyzed using HITACHI 7020.
FIGS. 1 to 5 show the change in blood triglyceride levels (FIG. 1), the change in blood total cholesterol levels (FIG. 2), the change in LDL-cholesterol levels (FIG. 3), blood HDL-cholesterol levels (FIG. 4), and the change in the blood HDL/LDL-cholesterol ratio (FIG. 5). The obtained results were statistically processed, and the mean values and the standard deviations of the mean values were calculated. In the verification of significance between the groups (n=6), data were statistically processed using Dunnett's test of one-way ANOVA, and a value of p<0.05 was considered statistically significant.

| pEC50 [1] | pEC50 [2] | Molecule | blood total cholesterol levels compared to VICTOZA ([3]; FIG. 6) | blood LDL-cholesterol level compared to VICTOZA ([3]; FIG. 7) | blood HDL-cholesterol levels compared to VICTOZA ([3]; FIG. 8) | HDL/LDL-cholesterol ratio compared to VICTOZA ([3]; FIG. 9) | blood triglyceride levels compared to VICTOZA ([3]; FIG. 10) | blood triglyceride levels ([4]; FIG. 1) | blood total cholesterol levels ([4]; FIG. 2) | blood LDL-cholesterol levels ([4]; FIG. 3) | blood HDL-cholesterol levels ([4]; FIG. 4) | blood HDL/LDL-cholesterol ratio ([4]; FIG. 5) |
| --- | --- | --- | --- | --- | --- | --- | --- | --- | --- | --- | --- | --- |
| 8.61 | 8.24 | CSCC[C@H](NC(=O)[C@H](CC(C)C)NC(=O)[C@H](Cc1c[nH]c2ccccc12)NC(=O)[C@H](CS)NC(=O)[C@@H](NC(=O)[C@H](Cc1ccccc1)NC(=O)[C@H](CCC(=O)O)NC(=O)[C@H](CCCCN)NC(=O)[C@H](C)NC(=O)[C@H](CCCNC(=N)N)NC(=O)[C@H](CCCCN)NC(=O)[C@H](CCC(=O)O)NC(=O)[C@H](CC(=O)O)NC(=O)[C@H](CC(C)C)NC(=O)[C@H](Cc1ccc(O)cc1)NC(=O)[C@H](CCCCN)NC(=O)[C@H](CO)NC(=O)[C@H](Cc1ccc(O)cc1)NC(=O)[C@H](CC(=O)O)NC(=O)[C@H](CO)NC(=O)[C@@H](NC(=O)[C@H](Cc1ccccc1)NC(=O)[C@@H](NC(=O)CNC(=O)[C@H](CCC(N)=O)NC(=O)C(C)(C)NC(=O)[C@@H](N)Cc1c[nH]cn1)[C@@H](C)O)[C@@H](C)O)C(C)C)C(=O)N[C@@H](CC(N)=O)C(=O)N[C@H](C(=O)O)[C@@H](C)O [SEQ ID NO: 23] (H-H[Aib]QGTFTSDYSKYLDEKRAKEFVCWLMNT-OH; C-terminus assumed) |  |  |  |  |  |  |  |  |  |  |
|  |  | SEQ ID NO: 25-Fc conjugate: oxyntomodulin derivative of SEQ ID NO: 25 linked at cysteine 30 via MAL-10K-ALD PEG to immunoglobulin Fc (Example 4) (HXQGTFTSDYSKYLDEKRAKEFVQWLMNTC; PEG linker at Cys30 to immunoglobulin Fc; MOD_RES (2)..(2) Aib; (16)..(20) Ring formation between residues) | decrease | decrease | significant increases | significant increases | decrease | significantly decreased | significantly decreased | significantly decreased | significant increase | significant increase |
